{
  "source": "paper PMC5430895",
  "about": "(Scientific Reports, 2017)",
  "key": {"[1]": {"tested_on": "saracatinib uptake into RASF", "experiment": "Uptake competition experiments: saracatinib uptake by RASF in presence of transporter substrates", "conditions": "saracatinib 10 µM"}, "[2]": {"substrate": "CN1CCN(CCOc2cc(OC3CCOCC3)c3c(Nc4c(Cl)ccc5c4OCO5)ncnc3c2)CC1", "experiment": "cells, lysate or membranes named", "conditions": "other: hOCTN1-HEK293 cells, 10 min incubation; pH 7.4; 37.0 °C", "experimental": "Twenty-four hours before starting experiments hOCTN1 expression was induced by 1 mg/l doxycycline (Sigma-Aldrich, Steinheim, Germany). Cells were grown at standard conditions. […] Cell number was evaluated with a CASEYTT cell counter (Roche Innovatis, Reutlingen, Germany).\nAfter incubation, cells were washed with ice-cold PBS and hypoosmotic lysis was induced with 0.1% formic acid. […] The mobile phase consisted of (A) acetonitrile with 0.1% formic acid and (B) 0.1% formic acid and was delivered at 0.3 ml/min in a gradient program. After delivering 100% B for 3 min, a linear gradient to 100% A was applied within 7 min and maintained for 5 min. Thereafter, in order to re-equilibrate the column, a simple isocratic elution step with 100% eluent B was applied for at least 6 min. […] Separation was carried out on an Accucore C18 column equipped with a C18 guard column. The data were acquired by ChromQuest 5.0 chromatography software."}},
  "data": [
    {"molecule": "C[N+](C)(C)[C@@H](Cc1c[nH]c(=S)[nH]1)C(=O)[O-]", "note": "[Ergothioneine, L-(+)-ergothioneine]", "values": [
      {"measurement": "net accumulation rate of saracatinib, % of the control", "setting": "[1]; ergothioneine 40 µM (OCTN1 substrate)", "result": 53, "unit": "%"}
    ]},
    {"molecule": "C[n+]1ccc(-c2ccccc2)cc1.[I-]", "note": "[MPP^+]", "values": [
      {"measurement": "effect on saracatinib uptake", "setting": "[1]; MPP+ 20 µM (inhibitor of hOCT1-3)", "result": "did not influence saracatinib uptake"}
    ]},
    {"molecule": "hOCTN1 (Homo sapiens) (protein) MRDYDEVIAFLGEWGPFQRLIFFLLSASIIPNGFNGMSVVFLAGTPEHRCRVPDAANLSSAWRNNSVPLRLRDGREVPHSCSRYRLATIANFSALGLEPGRDVDLGQLEQESCLDGWEFSQDVYLSTVVTEWNLVCEDNWKVPLTTSLFFVGVLLGSFVSGQLSDRFGRKNVLFATMAVQTGFSFLQIFSISWEMFTVLFVIVGMGQISNYVVAFILGTEILGKSVRIIFSTLGVCTFFAVGYMLLPLFAYFIRDWRMLLLALTVPGVLCVPLWWFIPESPRWLISQRRFREAEDIIQKAAKMNNIAVPAVIFDSVEELNPLKQQKAFILDLFRTRNIAIMTIMSLLLWMLTSVGYFALSLDAPNLHGDAYLNCFLSALIEIPAYITAWLLLRTLPRRYIIAAVLFWGGGVLLFIQLVPVDYYFLSIGLVMLGKFGITSAFSMLYVFTAELYPTLVRNMAVGVTSTASRVGSIIAPYFVYLGAYNRMLPYIVMGSLTVLIGILTLFFPESLGMTLPETLEQMQKVKWFRSGKKTRDSMETEENPKVLITAF", "values": [
      {"measurement": "Km", "setting": "[2]", "result": "42 ± 11", "unit": "µM"}
    ]}
  ]
}
